Several values for one entry are separate records, joined by “and”; a condition that tells them apart may be missing. Equal values may be shown once.
Key:
Settings in all cases: 48 h
NCI-H295R [1] = experiment: area under concentration-response curve (viability) (AUC (a.u.)); higher = less active
Procedure, shortened: (§1)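 Concentration-response curves were fitted to obtain AC50 and area under the curve, keeping inhibitory or non-responding curve classes only. Data came from CellTiter-Glo luminescence, normalised per plate to vehicle and empty-well controls, in three adrenocortical carcinoma cell lines. These were treated in 1,536-well plates with library compounds at 11 concentrations and read after 48 h.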

CU-ACC2 [2] = experiment: as above
Procedure, shortened: as §1

CU-ACC1 [3] = experiment: as above
Procedure, shortened: as §1

NCI-H295R [4] = experiment: AC50 viability; higher = less potent
Procedure, shortened: as §1

CU-ACC2 [5] = experiment: AC50 viability; higher = less potent
Procedure, shortened: as §1

CU-ACC1 [6] = experiment: AC50 viability; higher = less potent
Procedure, shortened: as §1

SMILES	area under concentration-response curve (NCI-H295R [1])	area under concentration-response curve (CU-ACC2 [2])	area under concentration-response curve (CU-ACC1 [3])	AC50 viability (NCI-H295R [4])	AC50 viability (CU-ACC2 [5])	AC50 viability (CU-ACC1 [6])
COc1cc(N2CCC(N3CCN(C)CC3)CC2)ccc1Nc1ncc(Cl)c(Nc2ccccc2[S+](=O)([O-])C(C)C)n1	432	479	436	2.95 µM	5.25 µM	11.8 µM
CC/1=C(\O)C(=O)\C=C2/C1=C\C=C3/[C@@]2(C)CC[C@@]4(C)[C@@H]5C[C@@](C)(CC[C@]5(C)CC[C@]34C)C(O)=O	447	515	474	23.5 µM	6.61 µM	13.2 µM
C[C@@H](NC(=O)c1ncnc(N)c1Cl)c1ncc(C(=O)Nc2cc(C(F)(F)F)c(Cl)cn2)s1	318	316	295	18.6 µM	18.6 µM	18.6 µM
COCCOC(=O)N1CCN([S+](=O)([O-])c2cc(F)c(Oc3ccc(Cl)cc3)c(F)c2)C(C(=O)NO)C1 (configuration not stated)	507	428	471	20.9 µM	10.5 µM	13.2 µM
CC[C@@]1(O)C(=O)OCC/2=C1/C=C3\N(CC4=CC5=CC(=CC=C5N=C34)O)C2=O	518	436	271	–	0.742 µM	2.09 µM
CC(C)c1cc(C(=O)N2Cc3ccc(CN4CCN(C)CC4)cc3C2)c(O)cc1O	445	445	371	3.72 µM	0.833 µM	2.35 µM
CN(c1ncccc1CNc1nc(Nc2ccc3c(c2)CC(=O)N3)ncc1C(F)(F)F)[S+](C)(=O)[O-]	430	422	404	14.8 µM	6.61 µM	13.2 µM
CC(=O)Nc1ccc([C@H](C)C(=O)Nc2ncc(C(C)C)s2)cc1	485	376	448	18.6 µM	5.25 µM	9.34 µM
O=C(CCCCCCC(=O)N/N=C/c1ccc(N(c2ccccc2)c2ccccc2)cc1)NO	382	371	381	1.18 µM	10.5 µM	6.61 µM
COc1ccc(-c2cc3c(C)nc(N)nc3n([C@H]3CC[C@H](OCCO)CC3)c2=O)cn1	435	446	425	0.235 µM	0.59 µM	0.295 µM
Clc1ccc(C(c2ccc(Cl)cc2)[n+]2ccn(CC(OCc3ccc(Cl)cc3Cl)c3ccc(Cl)cc3Cl)c2)cc1 (configuration not stated)	445	528	442	8.33 µM	11.8 µM	13.2 µM
COc1cc(N2CCN(C)CC2)ccc1Nc1nccc(-c2cn(C)c3cnccc23)n1	464	507	451	20.9 µM	18.6 µM	33.2 µM
Cc1cc(-c2ccc(CC(=O)Nc3ccc(-c4cccnc4)cc3)cc2)ccn1	440	460	435	16.6 µM	23.5 µM	20.9 µM
COc1ccc(-c2cc(C(O)C3CCCCN3)c3ccccc3n2)cc1 (configuration not stated)	455	377	432	7.42 µM	14.8 µM	10.5 µM
Cn1cc(CNCC2CCN(c3ncc(C(=O)NO)cn3)CC2)c2ccccc21	443	347	325	0.661 µM	0.417 µM	0.661 µM
CCOc1cc(C(=O)N2CCC(N3CCN(C)CC3)CC2)ccc1Nc1ncc2c(n1)N(C1CCCC1)c1ccccc1C(=O)N2C	448	494	423	18.6 µM	18.6 µM	18.6 µM
NC1=C(Cl)C(=CC=N1)OC2=C(F)C=C(NC(=O)\C3=C\N\C=C(C3=O)\C4=CC=C(F)C=C4)C=C2	490	502	437	13.2 µM	16.6 µM	14.8 µM
CCN1CCN(Cc2ccc(NC(=O)Nc3ccc(Oc4cc(NC)ncn4)cc3)cc2C(F)(F)F)CC1	494	526	436	11.8 µM	10.5 µM	9.34 µM
CC(C)N(CCCNC(=O)Nc1ccc(C(C)(C)C)cc1)C[C@H]1O[C@@H](n2cc(Br)c3c(N)ncnc32)[C@H](O)[C@@H]1O	464	506	438	16.6 µM	16.6 µM	16.6 µM
C=CCNC1=C2CC(C)CC(OC)C(O)C(C)/C=C(\C)C(OC(N)=O)C(OC)/C=C/C=C(\C)C(=O)NC(=CC1=O)C2=O (configuration not stated)	491	480	410	10.5 µM	1.18 µM	3.32 µM
COc1cccc2c1C(=O)c1c(O)c3c(c(O)c1C2=O)C[C@@](O)(C(=O)CO)C[C@@H]3O[C@H]1C[C@H](N)[C@@H](O)[C@H](C)O1	510	507	424	18.6 µM	8.33 µM	10.5 µM
C=C1CC[C@@H]2[C@](C)(CO)[C@H](O)CC[C@@]2(C)[C@@H]1C/C=C1/C(=O)OC[C@H]1O	372	388	334	16.6 µM	5.9 µM	11.8 µM
CO[C@@H](C)Cn1c(=O)n(C)c2cnc3ccc(-c4cncc(C(C)(C)O)c4)cc3c21	445	419	398	1.05 µM	0.661 µM	0.742 µM
CCCCCCC(C)(C)C1=CC2=C([C@H]3CC(=C/CC3C(C)(C)O2)\CO)C(=C1)O (some centres not stated)	458	497	442	4.17 µM	5.9 µM	5.9 µM
COc1cc(Nc2c(C#N)cnc3cc(OCCCN4CCN(C)CC4)c(OC)cc23)c(Cl)cc1Cl	430	451	412	7.42 µM	8.33 µM	5.9 µM
C=CC(=O)N1CCC(Oc2cc3c(Nc4ccc(Cl)c(Cl)c4F)ncnc3cc2OC)CC1	440	532	400	20.9 µM	20.9 µM	4.68 µM
COc1ncc(Nc2ncc(C(C)N3CCN([S+](C)(=O)[O-])CC3)cc2-c2nc(C)nc(N)n2)cc1F (configuration not stated)	179	258	226	–	0.0934 µM	0.00263 µM
C[C@@H]\1CC(=O)N\N=C1C2=CC=C(NN=C(C#N)C#N)C=C2	363	425	375	–	16.6 µM	11.8 µM

SMILES	area under concentration-response curve (NCI-H295R [1])	area under concentration-response curve (CU-ACC2 [2])	area under concentration-response curve (CU-ACC1 [3])	AC50 viability (NCI-H295R [4])	AC50 viability (CU-ACC2 [5])	AC50 viability (CU-ACC1 [6])
Oc1cc(-c2nc(-c3ccccc3)[nH]c2-c2ccncc2)ccc1Cl	522	514	464	–	16.6 µM	20.9 µM
C[C@]12Cc3cn[nH]c3C[C@@H]1CC[C@@H]1[C@@H]2CC[C@@]2(C)[C@H]1CC[C@]2(C)O	312	214	335	–	0.263 µM	0.0132 µM
c1cc(N[C@@H]2CCNC2)nc(-c2cnc3ccc(-c4cn[nH]c4)cn23)c1	409	380	331	–	41.7 µM	0.00662 µM
CCC(=C/[C@H](C)C/C=C/C(C)=C/[C@@H](C)C(=O)[C@@H](C)[C@H](O)[C@@H](C)C/C(C)=C/C(=O)O)/C=C/[C@@H]1OC(=O)C=C[C@@H]1C	333	344	230	–	13.2 µM	0.00105 µM
C=C1/C(=C\C=C2/CCC[C@]3(C)[C@@H]([C@H](C)CCCC(C)(C)O)CC[C@@H]23)C[C@@H](O)C[C@@H]1O	364	329 and 416	408 and 314	–	14.8 µM	16.6 µM
CC1=C(/C=C/C(C)=C/C=C/C(C)=C/C(=O)Nc2ccc(O)cc2)C(C)(C)CCC1	179	170	232	–	0.295 µM	0.235 µM
CN1\C=N/C2=CC=C(NC3=CC(=CC=C3C)NC(=O)C4=CC(=CC=C4)C(C)(C)C#N)C=C2C1=O	518	499	445	–	8.33 µM	0.0934 µM
CC(=O)Nc1ccc(C(=O)NC(C)(C)C)cc1	284	247	331	–	0.295 µM	5.25 µM
CN[C@@H]1CN(C[C@H]1OC)C2=NC3=C(C=C2)C(=O)C(=C\N3C4=NC=CS4)/C(O)=O	445	474	475	–	4.56 µM	10.2 µM
CN(C)C1CCN(C(=O)c2ccc(NC(=O)Nc3ccc(-c4nc(N5CCOCC5)nc(N5CCOCC5)n4)cc3)cc2)CC1	485	345	411	–	4.17 µM	2.35 µM
Cc1c[nH]c2ncnc(N3CCC(CN)(C(=O)Nc4cccc(OC(=O)N(C)C)c4)CC3)c12	518 and 295	512	427 and 309	–	18.6 µM	10.5 µM
Cc1c(NC(=O)c2cc(C(N)=O)nc3cc(F)ccc23)c(C(F)(F)F)nn1Cc1ccc(C#N)cc1	462	443	460	–	10.5 µM	1.66 µM
CC[C@@]1(O)C(=O)OCc2c1cc1n(c2=O)Cc2cc3c(CN(C)C)c(O)ccc3nc2-1.Cl	488	483	428	–	16.6 µM	16.6 µM
O=C(N[C@@H](c1ccccc1)[C@@H]1CCCCN1)c1cccc(C(F)(F)F)c1Cl	212	454	371	–	33.2 µM	10.5 µM
CCCNC(=O)[C@H]1O[C@@H]1C(=O)N[C@H](C(=O)N1CCC[C@H]1C(=O)OC)C(C)CC (some centres not stated)	494	504	449	–	18.6 µM	16.6 µM
O=C1[C@H](Cc2ccc(O)cc2)N2C(=O)CCN(C(=O)NCc3ccccc3)[C@H]2CN1Cc1cccc2ccccc12	496	554	531	–	4.68 µM	11.8 µM
CN1C(=O)/C(=C(NC2=CC=C(I)C=C2F)\C3=C1\N=C/N(C[C@@H](O)CO)C3=O)F	534	497	431	–	11.8 µM	8.33 µM
O=C(CCCCCCC(=O)Nc1ccc([C@H]2O[C@@H](CSc3nc(-c4ccccc4)c(-c4ccccc4)o3)C[C@@H](c3ccc(CO)cc3)O2)cc1)NO	492	573	488	–	3.4 µM	2.7 µM
CN(C)C1CCN(C(=O)c2ccc(NC(=O)Nc3nc(N4CCOCC4)nc(N4CCOCC4)n3)cc2)CC1	464	458	393	–	1.86 µM	3.32 µM
CN1\N=C(N)/C2=C[N]([C@@H]3O[C@H](CO[P](O)(O)=O)[C@@H](O)[C@H]3O)C4=C2C1=NC=N4	493	464	429	–	4.68 µM	11.8 µM
Cn1c(CCCCCCC(=O)NO)nc2cc(N(CCCl)CCCl)ccc21	497	479	439	–	5.9 µM	10.5 µM
C[C@@H](O)[C@@H](C)Oc1nc(Nc2ccc([S+](=N)([O-])C3CC3)cc2)ncc1C(F)(F)F (some centres not stated)	–	567	476	–	26.3 µM	23.5 µM
COC1=CC=C(C=C1)C/2=C/OC3=C(C(=CC(=C3)O)O)C2=O	208	164	267	–	0.295 µM	0.0661 µM
CCC[C@H](NC(=O)/C(C#N)=C/c1cccc(Br)n1)c1ccccc1	–	565	468	–	26.3 µM	26.3 µM
COc1ccc(CNc2nc(N(CCO)CCO)nc3c2ncn3C(C)C)cc1	–	502	438	–	7.42 µM	14.8 µM
CN1C(=O)C(=C/2N(C(=O)N(C3CC3)C(=O)C2=C1/NC4=CC=C(I)C=C4F)C5=CC=CC(=C5)NC(C)=O)\C	408	372	305	–	0.0661 µM	0.742 µM
NCCCCNCCCN	107	422	312	–	33.2 µM	16.6 µM
